PubChem BioAssay AID248 (DTP/NCI, 2004)
Where “and” joins values, the source holds several entries; their conditions need not be identical. Equal values may be shown once. Toxic doses and inconclusive results are not listed.

System: L1210 leukemia ip in BDF1 mice, survival T/C
Assay: NCI In Vivo Anticancer Drug Screen. Data for tumor model L1210 Leukemia (intraperitoneal) in B6D2F1 (BDF1) mice
Conditions: endpoint: mean survival time, higher = longer survival
Method in brief: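 Mice bearing the transplanted tumor received compound or vehicle. Survival of the treated group was divided by that of the vehicle-treated control group to give the ratio.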

[1] = dose: 100.0 mg/kg/injection, schedule: Q01DX001 (ip), vehicle: saline
[2] = dose: 200.0 mg/kg/injection, schedule: Q01DX001 (ip), vehicle: saline
[3] = dose: 400.0 mg/kg/injection, schedule: Q01DX001 (ip), vehicle: saline

## CC1C2CC(C3(C)OCCO3)CCC2(C)CCC12OCCO2 (stereo not given)
dose: 100.0 mg/kg/injection, schedule: Q04DX003 (ip), vehicle: Klucel (hydroxypropylcellulose) (HPC)
  T/C: 101 % of control
dose: 200.0 mg/kg/injection, schedule: Q04DX003 (ip), vehicle: Klucel (hydroxypropylcellulose) (HPC)
  T/C: 106 % of control
dose: 400.0 mg/kg/injection, schedule: Q04DX003 (ip), vehicle: Klucel (hydroxypropylcellulose) (HPC)
  T/C: 106 % of control

## NC(=O)c1nn(C2OC(CO)C(O)C2O)c2ncnc(N)c12 (stereo not given)
dose: 50.0 mg/kg/injection, schedule: Q01DX005 (ip), vehicle: saline
  T/C: 236 % of control
dose: 100.0 mg/kg/injection, schedule: Q01DX005 (ip), vehicle: saline
  T/C: 258 % of control
dose: 200.0 mg/kg/injection, schedule: Q01DX005 (ip), vehicle: saline
  T/C: 236 % of control

## CSc1nc(Cl)nc(C(Cl)(Cl)Cl)c1Cl
dose: 100.0 mg/kg/injection, schedule: Q01DX001 (ip), vehicle: Klucel (hydroxypropylcellulose) (HPC)
  T/C: 89 % of control
dose: 200.0 mg/kg/injection, schedule: Q01DX001 (ip), vehicle: Klucel (hydroxypropylcellulose) (HPC)
  T/C: 103 % of control
dose: 400.0 mg/kg/injection, schedule: Q01DX001 (ip), vehicle: Klucel (hydroxypropylcellulose) (HPC)
  T/C: 89 % of control

## Cc1ccc(OCCOc2ccc(C)c(CC(Cl)(Cl)Cl)c2)cc1CC(Cl)(Cl)Cl
dose: 100.0 mg/kg/injection, schedule: Q01DX001 (ip), vehicle: DMSO
  T/C: 88 % of control
dose: 200.0 mg/kg/injection, schedule: Q01DX001 (ip), vehicle: DMSO
  T/C: 89 % of control
dose: 400.0 mg/kg/injection, schedule: Q01DX001 (ip), vehicle: DMSO
  T/C: 88 % of control

## CCC(C(=O)NNC(=O)c1cc(OC)c(OC)c(OC)c1)c1ccccc1 (stereo not given)
dose: 100.0 mg/kg/injection, schedule: Q01DX001 (ip), vehicle: saline with Tween-80
  T/C: 96 % of control
dose: 100.0 mg/kg/injection, schedule: Q04DX002 (ip), vehicle: saline with Tween-80
  T/C: 97 % of control and 101 % of control
dose: 100.0 mg/kg/injection, schedule: Q04DX003 (ip), vehicle: saline with Tween-80
  T/C: 100 % of control and 90 % of control
dose: 200.0 mg/kg/injection, schedule: Q01DX001 (ip), vehicle: saline with Tween-80
  T/C: 98 % of control
dose: 200.0 mg/kg/injection, schedule: Q04DX002 (ip), vehicle: saline with Tween-80
  T/C: 97 % of control and 98 % of control
dose: 200.0 mg/kg/injection, schedule: Q04DX003 (ip), vehicle: saline with Tween-80
  T/C: 93 % of control and 104 % of control
dose: 400.0 mg/kg/injection, schedule: Q01DX001 (ip), vehicle: saline with Tween-80
  T/C: 93 % of control
dose: 400.0 mg/kg/injection, schedule: Q04DX002 (ip), vehicle: saline with Tween-80
  T/C: 101 % of control and 90 % of control
dose: 400.0 mg/kg/injection, schedule: Q04DX003 (ip), vehicle: saline with Tween-80
  T/C: 92 % of control and 93 % of control

## O=C(Nc1cc([N+](=O)[O-])ccc1S(=O)(=O)c1ccc([N+](=O)[O-])cc1NC(=O)c1ccccc1)c1ccccc1
dose: 75.0 mg/kg/injection, schedule: Q04DX003 (ip), vehicle: saline
  T/C: 92 % of control
[1]
  T/C: 93 % of control
dose: 150.0 mg/kg/injection, schedule: Q04DX003 (ip), vehicle: saline
  T/C: 124 % of control
[2]
  T/C: 94 % of control
dose: 300.0 mg/kg/injection, schedule: Q04DX003 (ip), vehicle: saline
  T/C: 92 % of control
[3]
  T/C: 94 % of control

## COC(=O)CC1=C(C)CCc2cc3c(cc21)sc1ccccc13
[1]
  T/C: 94 % of control
[2]
  T/C: 94 % of control
[3]
  T/C: 101 % of control
